Columns and labels:
[1] = biological target: T1, PDC-3 β-lactamase (Pseudomonas aeruginosa, UniProt P24735, T105A); assay: BATSI inhibition kinetics (IC50), nitrocefin reporter; assay type: biochemical; conditions: PDC-3 (1.5 nM); 5-min preincubation; 100 μM nitrocefin reporter substrate
T1 construct: produces the corresponding PDC-3 protein without its signal peptide; made in house; host or cells: E. coli Origami 2 DE3, pET24a (+) blaPDC-3
Protocol: (§1) Because of the time-dependent inhibition observed previously with some of the chiral boronates ([43]), the BATSIs were preincubated with enzyme for 5 min in phosphate-buffered saline before initiation of the reaction with the addition of substrate. The initial velocity (0 to 10 s) was measured in the presence of a constant concentration of enzyme (1.5 nM PDC-3 and 20 nM E221K) and increasing concentrations of the inhibitors against the fixed concentration (100 μM) of the indicator substrate, nitrocefin. The IC50 is the concentration of inhibitor that reduces the velocity by 50%. IC50 values were determined by fitting the initial velocity (v0) measurements to equation 2.(2) v0= Vmax[S]/Km[1+ I/IC50]+[S]

[2] = biological target: T2, E221K variant of PDC-3 β-lactamase (Pseudomonas aeruginosa, UniProt P24735, E247K/T105A); assay: as above; assay type: biochemical; conditions: E221K (20 nM); 5-min preincubation; 100 μM nitrocefin reporter substrate
T2 construct: produces the corresponding PDC-3 protein without its signal peptide; made in house; host or cells: E. coli Origami 2 DE3, pET24a (+) blaPDC-3-E221K
T2 sequence (P24735 27-397 T105A/E247K): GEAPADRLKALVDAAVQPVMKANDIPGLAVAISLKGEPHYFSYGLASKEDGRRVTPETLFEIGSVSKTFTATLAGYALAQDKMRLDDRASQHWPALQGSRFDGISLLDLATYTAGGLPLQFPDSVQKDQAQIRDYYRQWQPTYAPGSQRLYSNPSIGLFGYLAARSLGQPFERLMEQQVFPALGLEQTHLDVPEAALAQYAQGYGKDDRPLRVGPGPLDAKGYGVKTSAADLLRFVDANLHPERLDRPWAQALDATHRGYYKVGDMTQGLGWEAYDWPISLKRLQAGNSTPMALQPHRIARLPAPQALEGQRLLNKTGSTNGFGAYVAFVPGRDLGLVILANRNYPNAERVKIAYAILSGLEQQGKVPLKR
Protocol: as §1

[3] = biological target: T1, PDC-3 β-lactamase; assay: Thermal denaturation by circular dichroism; assay type: binding; conditions: 10 μM PDC-3 with 200 μM inhibitor; CD, 20 to 80°C
Protocol: (§2) Circular dichroism (CD) experiments were carried out in a Jasco (Easton, MD) J-815 spectrometer with a Peltier effect temperature controller. Quartz cells with a 0.1-cm path length were used for all experiments.
(§3) PDC-3 enzyme and the E221K variant (10 μM) with or without S02030 or LP-06 (200 μM) were monitored for thermal denaturation by CD at λ215 and λ221 between 20 and 80°C with a heating rate of 2°C/min. Two-state behavior was indicated by identical curves at each wavelength. Raw equilibrium denaturation data were normalized to the fraction of denatured protein (fU). With the assumption of a reversible two-state transition (N ↔ U), equilibrium constants (Keq) at any given temperature were calculated, as previously described ([32]), using equation 4 (4) Keq=fU/(1−fU)
(§4) The melting temperature Tm was determined at the midpoint of equilibrium folding (T = Tm) when ΔG = 0. (5) ln Keq=1/T (−ΔH/R)+ΔS/R
(§5) The free energy of unfolding was determined as previously described using the equation ΔΔGu = ΔTmΔSu^PDC-3 (Schellman), where ΔSu^PDC-3 = 0.326 ± 0.02 Kcal mol^−1 K^−1.

[4] = biological target: T2, E221K variant of PDC-3 β-lactamase; assay: Thermal denaturation by circular dichroism; assay type: binding; conditions: 10 μM E221K with 200 μM inhibitor; CD, 20 to 80°C
Protocol: as §2, §3, §4, §5

[5] = test system: E. coli DH10B pBC SK blaPDC-3 E221K; assay: MIC, MH agar dilution (CLSI); assay type: cell-based, Escherichia coli; conditions: strain expressing E221K, highest MICs among variant strains
Protocol: Variant genes were synthesized into the pBC SK (-) vector by Celtek Bioscience (Franklin, TN). Mueller-Hinton (MH) agar-dilution MIC measurements were performed against isogenic transformants producing PDC-3 and nine variants of PDC-3 in pBC SK (-) according to the Clinical and Laboratory Standards Institute (CLSI) guidelines as previously described ([39], [48]). Avibactam, LP-06, and S02030 were tested at a constant 4 µg/ml in combination with various concentrations of ceftazidime. Piperacillin-tazobactam was maintained at a ratio of 8 piperacillin to 1 tazobactam. Ceftolozane-tazobactam was maintained at a ratio of 2 ceftolozane to 1 tazobactam. The MICs are reported as the concentrations at which bacterial growth was no longer observed. All MIC measurements were performed at least three times.

T1 sequence (P24735 27-397 T105A): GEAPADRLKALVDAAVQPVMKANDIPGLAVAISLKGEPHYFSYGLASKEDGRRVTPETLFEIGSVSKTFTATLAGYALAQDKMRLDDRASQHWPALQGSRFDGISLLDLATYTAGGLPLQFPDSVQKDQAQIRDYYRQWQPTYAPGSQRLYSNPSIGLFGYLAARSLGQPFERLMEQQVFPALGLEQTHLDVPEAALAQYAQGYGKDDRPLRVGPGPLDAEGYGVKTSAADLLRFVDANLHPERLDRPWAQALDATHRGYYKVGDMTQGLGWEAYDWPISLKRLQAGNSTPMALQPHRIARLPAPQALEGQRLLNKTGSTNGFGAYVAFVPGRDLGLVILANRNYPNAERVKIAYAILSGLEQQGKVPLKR

For O=C(Cc1cccs1)N[C@@H](Cn1cc(C(=O)O)nn1)B(O)O [S02030], the IC50 [1] was 62 ± 2 nM, the IC50 [2] was 769 ± 30 nM and the “increase in thermal stability (Tm) on inhibitor binding” value [3] was 6 °C. The “increase in thermal stability (Tm) on inhibitor binding” value [4] was 3 to 4 °C and the “MICs of ceftolozane and ceftazidime combined with BATSI” value [5] was 8 to 16 mg/L.

Source: PMC6299481, “Deciphering the Evolution of Cephalosporin Resistance to Ceftolozane-Tazobactam in Pseudomonas aeruginosa” (mBio, 2018)
